Laboratory results: EP1943275B1, “INSULINOTROPIC COMPOUNDS AND USES THEREOF” (Activotec SPP Limited, priority 2005, dated 2010)
Ends that are not written are not given here.

Columns and labels:
[1] = Control study: chemical stability in PBS/triethanolamine solution in the absence of DPP-IV; format: physicochemical; details: no DPP-IV; for percentage of each analogue remaining: PBS/TEthA, pH 7.5, 37°
Procedure: In the control study, peptides were incubated with PBS/triethanolamine solution in the absence of DPP-IV to measure their chemical stability.

DPP-IV = assay: Dipeptidyl peptidase IV (DPP-IV) assays (Example 10): DPP-IV digestion monitored by RP-HPLC; format: in vitro ADME; details: PBS/TEthA, pH 7.5, 37°
Excerpt: Their stabilities were monitored by RP-HPLC, noting the disappearance of the intact sequence and appearance of a species missing the N terminal dipeptide or similar fragment.

[2] = active form of GLP-1; DPP IV cleavage between Ala8 and Glu9; cited from earlier work
dipeptidyl peptidase IV = assay: DPP-IV assay (Example 5): hydrolysis followed by HPLC and ES-MS; format: in vitro ADME; details: After 18 hr incubation, 37°C, 50 mM triethanolamine buffer, pH 7.8, 11 milliunits DPP-IV
Procedure: Biological Chemistry. 385, pp 169-177.
Briefly, 100 - 200 microgams of each peptide was dissolved in 0.5 ml of 50 mM triethanolamine buffer, pH 7.8. To this was added a 10 microlitre solution of 11 milliunits DPP-IV (Sigma) and the solutions incubated at 37°C for up to 42 hours. […] The incubations were terminated by addition of 5 microlitres TFA to each tube and 50 microlitre of each were injected onto a reversed phase 4.6 x 250 mm C18 HPLC column, eluting a gradient of 20% - 45% acetonitrile in 0.1 % TFA/water over 25 minutes. […] After 42 hours, the 2 analogues slowly degraded to a product that gave a mass spectrum consistent with the mass of the 9-37 sequence, indicating longer term instability of the urea bond. This represented as much as 15% of the product by HPLC. This degradation appeared to be non-DPP-IV related, since samples without enzyme gave the same profile.

Row | Compound | percentage of each analogue remaining ([1]; Time 0 hr) [%] | percentage of each analogue remaining (DPP-IV; Time 0 hr) [%] | percentage of each analogue remaining ([1]; Time 22 hr) [%] | percentage of each analogue remaining (DPP-IV; Time 22 hr) [%] | percentage of each analogue remaining ([1]; Time 47 hr) [%] | non-enzymatic degradation ([1]; after 47 hr, by HPLC) | circulating half-life [2] | cleavage of the N terminal dipeptide by DPP-IV (dipeptidyl peptidase IV)
1 | CC[C@H](C)[C@H](NC(=O)[C@H](Cc1ccccc1)NC(=O)[C@H](CCC(=O)O)NC(=O)[C@H](CCCCN)NC(=O)[C@H](C)NC(=O)[C@H](C)NC(=O)[C@H](CCC(N)=O)NC(=O)CNC(=O)[C@H](CCC(=O)O)NC(=O)[C@H](CC(C)C)NC(=O)[C@H](Cc1ccc(O)cc1)NC(=O)[C@H](CO)NC(=O)[C@H](CO)NC(=O)[C@@H](NC(=O)[C@H](CC(=O)O)NC(=O)[C@H](CO)NC(=O)[C@@H](NC(=O)[C@H](Cc1ccccc1)NC(=O)[C@@H](NC(=O)CNC(=O)[C@H](CCC(=O)O)NC(=O)CNNC(=O)[C@@H](N)Cc1c[nH]cn1)[C@@H](C)O)[C@@H](C)O)C(C)C)C(=O)N[C@@H](C)C(=O)N[C@@H](Cc1c[nH]c2ccccc12)C(=O)N[C@@H](CC(C)C)C(=O)N[C@H](C(=O)N[C@@H](CCCCN)C(=O)NCC(=O)N[C@@H](CCCNC(=N)N)C(=O)NCC(=O)O)C(C)C [SP006, L-His-NH-NH-CH2-C(O)-Glu9-37] | 98 | 95 | – | – | – | – | – | –
2 | CC[C@H](C)[C@H](NC(=O)[C@H](Cc1ccccc1)NC(=O)[C@H](CCC(=O)O)NC(=O)[C@H](CCCCN)NC(=O)[C@H](C)NC(=O)[C@H](C)NC(=O)[C@H](CCC(N)=O)NC(=O)CNC(=O)[C@H](CCC(=O)O)NC(=O)[C@H](CC(C)C)NC(=O)[C@H](Cc1ccc(O)cc1)NC(=O)[C@H](CO)NC(=O)[C@H](CO)NC(=O)[C@@H](NC(=O)[C@H](CC(=O)O)NC(=O)[C@H](CO)NC(=O)[C@@H](NC(=O)[C@H](Cc1ccccc1)NC(=O)[C@@H](NC(=O)CNC(=O)[C@H](CCC(=O)O)NC(=O)CONC[C@H](C)NC(=O)[C@@H](N)Cc1c[nH]cn1)[C@@H](C)O)[C@@H](C)O)C(C)C)C(=O)N[C@@H](C)C(=O)N[C@@H](Cc1c[nH]c2ccccc12)C(=O)N[C@@H](CC(C)C)C(=O)N[C@H](C(=O)N[C@@H](CCCCN)C(=O)NCC(=O)N[C@@H](CCCNC(=N)N)C(=O)NCC(=O)O)C(C)C [SP005] | 98 | 95 | 95 | 95 | – | – | – | –
3 | CC[C@H](C)[C@H](NC(=O)[C@H](Cc1ccccc1)NC(=O)[C@H](CCC(=O)O)NC(=O)[C@H](CCCCN)NC(=O)[C@H](C)NC(=O)[C@H](C)NC(=O)[C@H](CCC(N)=O)NC(=O)CNC(=O)[C@H](CCC(=O)O)NC(=O)[C@H](CC(C)C)NC(=O)[C@H](Cc1ccc(O)cc1)NC(=O)[C@H](CO)NC(=O)[C@H](CO)NC(=O)[C@@H](NC(=O)[C@H](CC(=O)O)NC(=O)[C@H](CO)NC(=O)[C@@H](NC(=O)[C@H](Cc1ccccc1)NC(=O)[C@@H](NC(=O)CNC(=O)[C@H](CCC(=O)O)NC(=O)CNNC(=O)[C@H](C)NC(=O)[C@@H](N)Cc1c[nH]cn1)[C@@H](C)O)[C@@H](C)O)C(C)C)C(=O)N[C@@H](C)C(=O)N[C@@H](Cc1c[nH]c2ccccc12)C(=O)N[C@@H](CC(C)C)C(=O)N[C@H](C(=O)N[C@@H](CCCCN)C(=O)NCC(=O)N[C@@H](CCCNC(=N)N)C(=O)NCC(=O)O)C(C)C [SP007, L-His-L-Ala-NH-NH-CH2-C(O)-Glu9-37] | 98 | 95 | 95 | <5 | 95 | – | – | –
4 | CC[C@H](C)[C@H](NC(=O)[C@H](Cc1ccccc1)NC(=O)[C@H](CCC(=O)O)NC(=O)[C@H](CCCCN)NC(=O)[C@H](C)NC(=O)[C@H](C)NC(=O)[C@H](CCC(N)=O)NC(=O)CNC(=O)[C@H](CCC(=O)O)NC(=O)[C@H](CC(C)C)NC(=O)[C@H](Cc1ccc(O)cc1)NC(=O)[C@H](CO)NC(=O)[C@H](CO)NC(=O)[C@@H](NC(=O)[C@H](CC(=O)O)NC(=O)[C@H](CO)NC(=O)[C@@H](NC(=O)[C@H](Cc1ccccc1)NC(=O)[C@@H](NC(=O)CNC(=O)[C@H](CCC(=O)O)NC(=O)[C@H](C)NNC(=O)[C@@H](N)Cc1c[nH]cn1)[C@@H](C)O)[C@@H](C)O)C(C)C)C(=O)N[C@@H](C)C(=O)N[C@@H](Cc1c[nH]c2ccccc12)C(=O)N[C@@H](CC(C)C)C(=O)N[C@H](C(=O)N[C@@H](CCCCN)C(=O)NCC(=O)N[C@@H](CCCNC(=N)N)C(=O)NCC(=O)O)C(C)C [SP008, L-His-NH-NH-CH(CH3)-C(O)-Glu9-37] | 98 | 95 | – | 95 | – | 20-25% | – | –
5 | CC[C@H](C)[C@H](NC(=O)[C@H](Cc1ccccc1)NC(=O)[C@H](CCC(=O)O)NC(=O)[C@H](CCCCN)NC(=O)[C@H](C)NC(=O)[C@H](C)NC(=O)[C@H](CCC(N)=O)NC(=O)CNC(=O)[C@H](CCC(=O)O)NC(=O)[C@H](CC(C)C)NC(=O)[C@H](Cc1ccc(O)cc1)NC(=O)[C@H](CO)NC(=O)[C@H](CO)NC(=O)[C@@H](NC(=O)[C@H](CC(=O)O)NC(=O)[C@H](CO)NC(=O)[C@@H](NC(=O)[C@H](Cc1ccccc1)NC(=O)[C@@H](NC(=O)CNC(=O)[C@H](CCC(=O)O)NC(=O)[C@H](C)NC(=O)[C@@H](N)Cc1c[nH]cn1)[C@@H](C)O)[C@@H](C)O)C(C)C)C(=O)N[C@@H](C)C(=O)N[C@@H](Cc1c[nH]c2ccccc12)C(=O)N[C@@H](CC(C)C)C(=O)N[C@H](C(=O)N[C@@H](CCCCN)C(=O)NCC(=O)N[C@@H](CCCN=C(N)N)C(=O)NCC(=O)O)C(C)C [Native GLP-1 7-37, glucagon-like peptide-1 (7-37)] | – | – | – | – | – | – | less than 2 minutes | –
6 | HAEGTFTSDVSSYLEG [GLP-1 7-22] | – | – | – | – | – | – | – | completely cleaved
